{"source": "patent US5410024A", "about": "“Human cancer inhibitory pentapeptide amides” (Arizona Board of Regents acting on behalf of Arizona State …, priority 1993, dated 1995)", "key": {"[1]": {"tested_on": "OVCAR-3", "test": "NCI human tumor cell line screen, Ovarian OVCAR-3", "type": "cell-based", "details": "minipanel comparison, column A (key not visible; values match OVCAR-3)", "excerpt": "(§1) Current research in the control of cancer in the United States is coordinated by the National Cancer Institute (NCI). To determine whether a substance has anti-cancer properties, the NCI has established a systematic protocol. […] The protocol, and the established statistical means for analyzing the results obtained by the standardized testing are fully described in the literature. […] Both of these references are incorporated herein by this reference thereto."}, "[2]": {"tested_on": "SF-295", "test": "NCI human tumor cell line screen, CNS SF-295", "type": "cell-based", "details": "minipanel comparison, column B (key not visible; values match SF-295)", "excerpt": "as §1"}, "[3]": {"tested_on": "A498", "test": "NCI human tumor cell line screen, Renal A498", "type": "cell-based", "details": "minipanel comparison, column C (key not visible; values match A498)", "excerpt": "as §1"}, "[4]": {"tested_on": "NCI-H460", "test": "NCI human tumor cell line screen, Lung-NSC NCI-H460", "type": "cell-based", "details": "minipanel comparison, column D (key not visible; values match NCI-H460)", "excerpt": "as §1"}, "[5]": {"tested_on": "KM20L2", "test": "NCI human tumor cell line screen, Colon KM20L2", "type": "cell-based", "details": "minipanel comparison", "excerpt": "as §1"}, "[6]": {"tested_on": "SK-MEL-5", "test": "NCI human tumor cell line screen, Melanoma SK-MEL-5", "type": "cell-based", "details": "minipanel comparison, column F (key not visible; values match SK-MEL-5)", "excerpt": "as §1"}, "[7]": {"tested_on": "P388 Lymphocytic Leukemia", "test": "Murine in vivo system, P388 Lymphocytic Leukemia"}, "[8]": {"tested_on": "L1210 Lymphocytic Leukemia", "test": "Murine in vivo system, L1210 Lymphocytic Leukemia"}, "[9]": {"tested_on": "B16 Melanoma", "test": "Murine in vivo system, B16 Melanoma"}, "[10]": {"tested_on": "Human Mammary Xenograph", "test": "Human Mammary Xenograph, Nude Mouse", "type": "in vivo", "details": "26 μg/kg"}, "[11]": {"tested_on": "M5076 Ovary Sarcoma", "test": "Murine in vivo system, M5076 Ovary Sarcoma"}, "[12]": {"tested_on": "OVCAR-3 Human Ovary Xenograph", "test": "OVCAR-3 Human Ovary Xenograph, Nude Mouse", "type": "in vivo", "details": "OVCAR-3 xenograph, 40 μg/kg"}, "[13]": {"tested_on": "LOX Human Melanoma Xenograph", "test": "LOX Human Melanoma Xenograph (Nude Mouse)", "type": "in vivo"}, "[14]": {"tested_on": "MX-1 Human Mammary Xenograft", "test": "MX-1 Human Mammary Xenograft (Tumor Regression)", "type": "in vivo, Murine"}, "[15]": {"details": "LOX in separate experiments, 9.0 μg/kg"}, "[16]": {"details": "LOX in separate experiments, 26 μg/kg"}, "[17]": {"details": "LOX in separate experiments, 43 μg/kg"}}, "data": [{"substance": "Dolastatin 10", "values": [{"measurement": "GI50, minipanel cell line A", "setting": "[1]", "value": 0.00095, "unit": "ng/mL"}, {"measurement": "GI50, minipanel cell line B", "setting": "[2]", "value": "7.6e-05", "unit": "ng/mL"}, {"measurement": "GI50, minipanel cell line C", "setting": "[3]", "value": 0.026, "unit": "ng/mL"}, {"measurement": "GI50, minipanel cell line D", "setting": "[4]", "value": 0.0034, "unit": "ng/mL"}, {"measurement": "GI50, minipanel cell line E", "setting": "[5]", "value": 0.0047, "unit": "ng/mL"}, {"measurement": "GI50, minipanel cell line F", "setting": "[6]", "value": 0.0074, "unit": "ng/mL"}, {"measurement": "cures", "setting": "[7]; P388, 3.25 μg/kg", "value": 17, "unit": "%"}, {"measurement": "cures", "setting": "[7]; P388, 6.5 μg/kg", "value": 17, "unit": "%"}, {"measurement": "T/C", "setting": "[7]; P388, 13.0 μg/kg", "value": "toxic"}, {"measurement": "T/C", "setting": "[8]; L1210, 1.63 μg/kg", "value": 120}, {"measurement": "T/C", "setting": "[8]; L1210, 3.25 μg/kg", "value": 139}, {"measurement": "T/C", "setting": "[8]; L1210, 6.5 μg/kg", "value": 135}, {"measurement": "T/C", "setting": "[8]; L1210, 13 μg/kg", "value": 152}, {"measurement": "T/C", "setting": "[9]; B16, 1.44 μg/kg", "value": 142}, {"measurement": "T/C", "setting": "[9]; B16, 3.4 μg/kg", "value": 171}, {"measurement": "T/C", "setting": "[9]; B16, 4.0 μg/kg", "value": 205}, {"measurement": "T/C", "setting": "[9]; B16, 6.67 μg/kg", "value": 182}, {"measurement": "T/C", "setting": "[9]; B16, 11.11 μg/kg", "value": 238}, {"measurement": "cures", "setting": "[9]; B16, 11.11 μg/kg", "value": 40, "unit": "%"}, {"measurement": "T/C", "setting": "[10]", "value": "Toxic"}, {"measurement": "T/C", "setting": "[11]; M5076, 3.25 μg/kg", "value": 151}, {"measurement": "T/C", "setting": "[11]; M5076, 6.5 μg/kg", "value": 142}, {"measurement": "T/C", "setting": "[11]; M5076, 13 μg/kg", "value": 166}, {"measurement": "T/C", "setting": "[11]; M5076, 26 μg/kg", "value": "toxic"}, {"measurement": "T/C", "setting": "[12]", "value": 300}, {"measurement": "T/C", "setting": "[13]; [15]", "value": 138}, {"measurement": "cures", "setting": "[13]; [15]", "value": 17, "unit": "%"}, {"measurement": "T/C", "setting": "[13]; LOX in separate experiments, 15 μg/kg", "value": 192}, {"measurement": "T/C", "setting": "[13]; [16]", "value": 181}, {"measurement": "cures", "setting": "[13]; [16]", "value": 33, "unit": "%"}, {"measurement": "T/C", "setting": "[13]; [17]", "value": 340}, {"measurement": "cures", "setting": "[13]; [17]", "value": 50, "unit": "%"}, {"measurement": "T/C", "setting": "[13]; LOX, 3.25 μg/kg", "value": 170}, {"measurement": "cures", "setting": "[13]; LOX, 3.25 μg/kg", "value": 17, "unit": "%"}, {"measurement": "cures", "setting": "[13]; LOX, 6.5 μg/kg", "value": 33, "unit": "%"}, {"measurement": "cures", "setting": "[13]; LOX, 13 μg/kg", "value": 50, "unit": "%"}, {"measurement": "cures", "setting": "[13]; LOX, 26 μg/kg", "value": 67, "unit": "%"}, {"measurement": "T/C", "setting": "[13]; LOX, 52 μg/kg", "value": "toxic"}, {"measurement": "T/C (Tumor Regression)", "setting": "[14]; MX-1, 6.25 μg/kg", "value": 69}, {"measurement": "T/C (Tumor Regression)", "setting": "[14]; MX-1, 13 μg/kg", "value": 61}, {"measurement": "T/C (Tumor Regression)", "setting": "[14]; MX-1, 26 μg/kg", "value": 50}, {"measurement": "T/C (Tumor Regression)", "setting": "[14]; MX-1, 52 μg/kg", "value": 14}]}]}
